In BindingDB's records for patent US11723908 (Suzhou Zanrong Pharma, 2023):

Biological target: Receptor tyrosine-protein kinase erbB-2 (Homo sapiens, UniProt P04626)
Experiment: BT474 Cellular Assay (HER2 Inhibition)
Procedure: Inhibition of phosphor HER2 was determined by enzyme-linked immunosorbent assay (ELISA) in BT474 cells. BT474 cell line was purchased from ATCC (catalog number HTB-20). Human Phospho-ErbB2 ELISA kit was purchased from R&D systems (catalog number DYC1768).

Sequence of Receptor tyrosine-protein kinase erbB-2 (P04626 whole entry): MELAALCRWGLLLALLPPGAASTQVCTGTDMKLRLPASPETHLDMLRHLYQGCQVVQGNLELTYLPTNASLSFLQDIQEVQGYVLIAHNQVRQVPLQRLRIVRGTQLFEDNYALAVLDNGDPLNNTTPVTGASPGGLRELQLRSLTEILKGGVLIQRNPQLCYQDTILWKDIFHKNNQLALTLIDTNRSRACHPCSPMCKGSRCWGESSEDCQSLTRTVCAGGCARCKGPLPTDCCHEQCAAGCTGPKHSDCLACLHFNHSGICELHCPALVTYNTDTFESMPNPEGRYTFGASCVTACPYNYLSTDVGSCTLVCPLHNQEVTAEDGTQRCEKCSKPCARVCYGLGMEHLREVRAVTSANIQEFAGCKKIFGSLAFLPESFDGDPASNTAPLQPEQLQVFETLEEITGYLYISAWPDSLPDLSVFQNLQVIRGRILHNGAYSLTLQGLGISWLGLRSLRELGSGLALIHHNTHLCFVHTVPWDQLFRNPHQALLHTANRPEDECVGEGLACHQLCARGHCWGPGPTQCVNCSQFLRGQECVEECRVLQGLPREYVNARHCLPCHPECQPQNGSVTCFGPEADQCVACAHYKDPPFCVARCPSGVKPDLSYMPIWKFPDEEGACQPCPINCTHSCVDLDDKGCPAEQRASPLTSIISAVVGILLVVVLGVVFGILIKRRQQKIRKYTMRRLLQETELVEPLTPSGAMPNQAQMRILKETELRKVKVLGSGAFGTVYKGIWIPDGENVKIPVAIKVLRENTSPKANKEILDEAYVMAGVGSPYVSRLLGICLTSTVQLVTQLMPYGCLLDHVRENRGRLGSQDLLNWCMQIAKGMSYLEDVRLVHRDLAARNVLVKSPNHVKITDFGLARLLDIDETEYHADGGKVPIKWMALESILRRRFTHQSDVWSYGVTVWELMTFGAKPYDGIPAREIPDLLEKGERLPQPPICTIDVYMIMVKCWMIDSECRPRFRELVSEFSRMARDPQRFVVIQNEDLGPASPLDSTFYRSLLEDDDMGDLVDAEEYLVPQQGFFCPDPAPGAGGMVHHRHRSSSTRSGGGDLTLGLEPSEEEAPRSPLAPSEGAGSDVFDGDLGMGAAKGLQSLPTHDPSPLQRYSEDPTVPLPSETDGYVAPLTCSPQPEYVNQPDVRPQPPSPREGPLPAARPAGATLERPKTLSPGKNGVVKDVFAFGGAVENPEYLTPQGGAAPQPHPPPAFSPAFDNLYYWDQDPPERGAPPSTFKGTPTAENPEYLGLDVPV

Q: For `Cc1cc(Nc2ncnc3ccc(OC(F)(F)F)c(O[C@H]4CCN(C)CC4(F)F)c23)ccc1Oc1cc2ncnn2cn1` [US11723908, Example 73], which IC50 is on record?
A: 145 nM
